Results as given in ChEMBL document CHEMBL5724796, “Tm Shift (DSF) assay results for EUbOPEN Chemogenomics Library” (2024).

Tests used:
Peregrin (Homo sapiens) = biological target: T1, Peregrin (Homo sapiens) (UniProt P55201); conditions: Compound concentration 20.0 uM
T1 sequence (whole entry): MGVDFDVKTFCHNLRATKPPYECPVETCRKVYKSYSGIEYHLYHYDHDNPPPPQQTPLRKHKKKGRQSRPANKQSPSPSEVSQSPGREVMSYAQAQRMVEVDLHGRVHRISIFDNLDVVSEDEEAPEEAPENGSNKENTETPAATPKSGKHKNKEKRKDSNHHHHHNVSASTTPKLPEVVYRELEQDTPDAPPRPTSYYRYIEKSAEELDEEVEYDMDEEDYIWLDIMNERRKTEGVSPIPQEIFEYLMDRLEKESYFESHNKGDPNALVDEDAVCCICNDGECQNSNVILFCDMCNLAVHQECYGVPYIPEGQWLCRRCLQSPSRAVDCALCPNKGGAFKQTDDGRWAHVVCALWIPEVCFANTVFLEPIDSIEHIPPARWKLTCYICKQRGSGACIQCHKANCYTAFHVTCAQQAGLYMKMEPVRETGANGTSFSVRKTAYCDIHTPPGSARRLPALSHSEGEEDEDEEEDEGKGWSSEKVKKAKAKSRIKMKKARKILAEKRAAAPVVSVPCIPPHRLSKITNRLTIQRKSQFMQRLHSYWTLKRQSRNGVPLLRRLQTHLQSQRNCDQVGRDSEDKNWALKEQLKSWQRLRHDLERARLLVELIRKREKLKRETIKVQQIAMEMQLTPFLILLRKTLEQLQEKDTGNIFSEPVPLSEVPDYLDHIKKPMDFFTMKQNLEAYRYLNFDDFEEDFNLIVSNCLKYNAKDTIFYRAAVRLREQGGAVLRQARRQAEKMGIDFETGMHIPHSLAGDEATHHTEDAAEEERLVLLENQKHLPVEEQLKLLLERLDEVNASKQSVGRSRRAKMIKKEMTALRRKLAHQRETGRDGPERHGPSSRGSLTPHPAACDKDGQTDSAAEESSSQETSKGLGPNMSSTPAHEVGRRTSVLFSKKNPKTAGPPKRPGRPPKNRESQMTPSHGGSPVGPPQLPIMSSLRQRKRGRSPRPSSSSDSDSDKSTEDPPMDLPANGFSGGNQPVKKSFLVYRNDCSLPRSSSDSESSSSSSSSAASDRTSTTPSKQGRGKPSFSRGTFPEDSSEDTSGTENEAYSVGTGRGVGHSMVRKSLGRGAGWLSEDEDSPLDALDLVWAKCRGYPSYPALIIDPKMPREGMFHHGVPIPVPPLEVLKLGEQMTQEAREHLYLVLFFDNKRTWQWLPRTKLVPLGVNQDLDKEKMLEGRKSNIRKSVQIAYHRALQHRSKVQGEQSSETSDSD

[1] = biological target: Fibroblast growth factor receptor 2 (Homo sapiens) (UniProt P21802); conditions: Compound concentration 20.0 uM
Chain of Fibroblast growth factor receptor 2 (Homo sapiens) (P21802 22-821 limits assumed): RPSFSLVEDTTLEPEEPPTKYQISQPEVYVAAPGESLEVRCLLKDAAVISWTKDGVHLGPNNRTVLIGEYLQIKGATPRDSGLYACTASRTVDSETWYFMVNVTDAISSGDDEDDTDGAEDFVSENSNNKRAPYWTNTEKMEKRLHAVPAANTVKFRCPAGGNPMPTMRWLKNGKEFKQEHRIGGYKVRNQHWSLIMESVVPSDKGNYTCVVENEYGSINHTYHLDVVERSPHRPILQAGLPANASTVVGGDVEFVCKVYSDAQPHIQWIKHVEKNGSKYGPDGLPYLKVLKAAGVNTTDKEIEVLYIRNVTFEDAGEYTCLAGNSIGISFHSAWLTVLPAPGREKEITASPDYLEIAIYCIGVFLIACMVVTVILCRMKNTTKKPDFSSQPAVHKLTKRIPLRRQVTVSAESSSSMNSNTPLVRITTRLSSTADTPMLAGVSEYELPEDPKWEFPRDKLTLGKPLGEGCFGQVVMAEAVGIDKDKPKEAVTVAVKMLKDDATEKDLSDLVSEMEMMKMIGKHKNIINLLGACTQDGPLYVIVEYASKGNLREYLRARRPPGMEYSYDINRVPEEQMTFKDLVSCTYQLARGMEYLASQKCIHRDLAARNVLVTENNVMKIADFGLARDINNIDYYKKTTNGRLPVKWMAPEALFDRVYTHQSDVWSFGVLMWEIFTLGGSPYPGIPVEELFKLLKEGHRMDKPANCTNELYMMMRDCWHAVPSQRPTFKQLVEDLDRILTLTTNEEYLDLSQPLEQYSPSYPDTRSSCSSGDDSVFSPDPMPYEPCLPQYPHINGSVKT
Description: Thermal Shift Assay. Domain: start/stop: T457-E768

SMILES | ΔTm (Peregrin (Homo sapiens)) [°C] | ΔTm [1] [°C] | ΔTm (Peregrin (Homo sapiens); Protein concentration 2.0 uM) [°C]
CNCC[C@@H](Oc1ccccc1C)c1ccccc1 | -1.53 | 0.34 | –
O=c1[nH]c(CS[C@H]2CC[C@H](O)CC2)nc2cc(OCC3CC3)cc(F)c12 | -0.24 | -0.27 | –
CN1C(=O)c2c(nn(Cc3ccc(-c4cccc(F)n4)cc3)c2Nc2ccccc2)N2C1=N[C@@H]1CCC[C@@H]12 | -0.45 | -0.21 | –
CS(=O)(=O)c1ccc(-c2nnc(C=Cc3nnc(-c4ccc(C#N)cc4)o3)n2-c2ccccc2Cl)nc1 | – | 0.13 | 2
C[C@@H]1O[C@@H](CC(=O)O)CC2=C1C(=O)c1c(O)cccc1C2=O | 0.11 | -0.89 | –
CC(C)c1ccc(C(=O)N=C(N)N)cc1S(C)(=O)=O | -0.14 | -0.34 | –
Cc1noc(C)c1-c1cc(Cl)c(Nc2ccccc2C(=O)O)c(Cl)c1 | -0.15 | 0.17 | –
CCN(c1cc(C#CCN2CCOCC2)cc(C(=O)NCc2c(C)cc(C)[nH]c2=O)c1C)[C@H]1CC[C@H](N(C)CCOC)CC1 | -1.63 | 0.42 | –
Nc1nc(C(F)(F)F)nc2c1nnn2C[C@H]1CN(Cc2nccs2)CCO1 | 1.22 | 0.48 | –
O=C(NCCCOc1ccc2[nH]c(=O)ccc2c1)N(C1CC1)[C@@H]1CCCC[C@H]1O | 1.1 | 0.24 | –
CC(=O)N[C@@H](CCCCNC(=O)CSCCNC(=O)CCNC(=O)[C@H](O)C(C)(C)COP(=O)(O)OP(=O)(O)OC[C@H]1O[C@@H](n2cnc3c(N)ncnc32)[C@H](O)[C@@H]1OP(=O)(O)O)C(N)=O | 1.95 | 0.51 | –
CCc1nc2c(C)cc(N3CCN(CC(=O)N4CC(O)C4)CC3)cn2c1N(C)c1nc(-c2ccc(F)cc2)c(C#N)s1 | -0.12 | 0.26 | –
Cc1ccc(N2C(=O)/C(=C/C=C/c3ccco3)C(=O)NC2=S)cc1Cl | -2.31 | -1.72 | –
COc1cccc(Nc2c(C(N)=O)cnc3c(C)cc(S(=O)(=O)c4cccc(C(=O)N(C)C)c4)cc23)c1 | -1.59 | -0.11 | –
Cc1noc2c1-c1ccccc1C(c1ccc(Cl)cc1)=N[C@H]2CC(N)=O | 2.09 | -0.03 | –
Cn1cc(C(=O)Nc2ccc([C@@H]3C[C@H]3NCC3CC3)cc2)cn1 | 0.16 | -0.53 | –
O=C(NC[C@H](O)CN1CCc2ccccc2C1)c1cc(NC2COC2)ncn1 | -1.25 | 0.37 | –
C[C@H](Nc1cc(Cl)nc2c1cnn2[C@@H]1O[C@H](COP(=O)(O)CP(=O)(O)O)[C@@H](O)[C@H]1O)c1ccccc1F | -1.02 | 0.2 | –
Cc1ccc([N+](=O)[O-])cc1S(=O)(=O)N(C)C | 2.57 | -0.67 | –
Cc1c(F)c(N)cc(C(=O)Nc2cc(-n3cc(C(=O)NCCCN4CCOCC4)nn3)ccc2N2CCN(C)CC2)c1Cl | -0.29 | 0.03 | –
O=C(Oc1cccc(F)c1OC(=O)c1cccc(O)c1)c1cccc(O)c1 | 3.01 | 0.56 | –

SMILES | ΔTm (Peregrin (Homo sapiens)) [°C] | ΔTm [1] [°C] | ΔTm (Peregrin (Homo sapiens); Protein concentration 2.0 uM) [°C]
Cc1c(CN2CCC(Nc3ncnc4sc(CC(F)(F)F)cc34)CC2)ccc2c1cc(C#N)n2Cc1cn[nH]c1 | 2.02 | -1.27 | –
CC(C)CCn1c(CN2CCN(C(=O)C3CC3)CC2)nc2c1c(=O)n(C)c(=O)n2C | 1.75 | -0.8 | –
CC(C)(F)C[C@H](N[C@@H](c1ccc(-c2ccc(S(C)(=O)=O)cc2)cc1)C(F)(F)F)C(=O)NC1(C#N)CC1 | -1.04 | 0.18 | –
NC(=O)[C@H]1CCCCc2c1[nH]c1ccc(Cl)cc21 | 0.13 | 1.09 | –
CC(=O)N1CCC(Nc2cc(C(=O)NC[C@H](O)CN3CCc4ccccc4C3)ncn2)CC1 | -1.13 | 0.28 | –
CCNC(=O)NCCSC[C@H]1O[C@@H](n2cnc3c(N)ncnc32)[C@H](O)[C@@H]1O | -1.31 | 0.95 | –
Cc1cc(C)c(CNC(=O)c2cc(Cl)c3c(c2C)O[C@@](C)([C@H]2CC[C@H](N(C)C)CC2)O3)c(=O)[nH]1 | -0.71 | -1.83 | –
C[C@]12CCCN1CC1=NNC(=O)c3cc(F)cc4[nH]c2c1c34 | -1.02 | 0.9 | –
CC(C)(C)OC(=O)Nc1ccc(-c2cc(C(=O)NCCCCCCC(=O)NO)no2)cc1 | 0 | -3.33 | –
NCCCOc1cc2ccccc2cc1C(=O)NCCOc1cc2ccccc2cc1C(=O)Nc1ccc(Cl)cc1O | 0 | -1.59 | –
N#C[C@@H]1CCCN1C(=O)CNC(=O)c1ccnc2ccc(OCCCN3CCN(C(=O)CN4CCN(CC(=O)O)CCN(CC(=O)O)CCN(CC(=O)O)CC4)CC3)cc12 | 1.8 | 0.18 | –
CC(=O)N[C@@H](CC(=O)O)C(=O)N[C@@H](CCC(=O)O)C(=O)N[C@H](C(=O)N[C@H](C=O)CC(=O)O)C(C)C | -1.4 | -0.22 | –
CCCC(NC(=O)C(CC(C)C)NC(=O)OCc1ccccc1)C(=O)C(=O)NCc1ccccn1 (racemic) | -1.7 | 0.15 | –
Nc1ncnc2c1c(I)cn2[C@@H]1O[C@H](CO)[C@@H](O)[C@H]1O | 2.98 | 2.17 | –
O=[N+]([O-])c1c(Nc2cc(F)cc(Cl)c2)ccc2nonc12 | 0.04 | -0.15 | –
CCOc1ccc(S(=O)(=O)Nc2ccc(Cl)cc2C#Cc2cnc(C(=O)O)cc2OC)c2ncccc12 | 0 | 0.19 | –
Cc1cc(C)c(-c2[nH]nc(C)c2C)cc1C(=O)N1CC(c2ccc(C#N)cc2)C1 | -1.03 | -0.22 | –
CC(C)(C)NS(=O)(=O)c1cccc2c(NC(=O)[C@H](Cc3ccccc3)NC(=O)C3CCCCC3)cccc12 | 0.28 | 0.01 | –
COc1ccc(C2C(C#N)=C(N)OC3=C2C(=O)CC(c2cccc4ccccc24)C3)cc1 (stereo not drawn) | 0.11 | -0.92 | –
Cc1ncsc1-c1ccc([C@H](C)NC(=O)[C@@H]2C[C@@H](O)CN2C(=O)[C@@H](NC(=O)COCCCOCCNC(=O)C[C@@H]2N=C(c3ccc(Cl)cc3)c3c(sc(C)c3C)-n3c(C)nnc32)C(C)(C)C)cc1 | -1.73 | -0.49 | –
O=C(NCCCn1ccnc1)c1cc2nc(-c3ccccc3)cc(-c3ccccc3)n2n1 | -1.26 | 0.5 | –

SMILES | ΔTm (Peregrin (Homo sapiens)) [°C] | ΔTm [1] [°C] | ΔTm (Peregrin (Homo sapiens); Protein concentration 2.0 uM) [°C]
CNC(=O)c1cc(C(=O)NC2CC2)cn(Cc2ccccc2)c1=O | 0.73 | -1.38 | –
CC1(C)CC[C@]2(C(=O)O)CC[C@]3(C)C(=CC[C@@H]4[C@@]5(C)C=C(O)C(=O)C(C)(C)[C@@H]5CC[C@]43C)[C@@H]2C1 | 2.32 | 0 | –
COc1cc2c(cc1OC)[C@H]1C[C@@H](O)[C@H](CC(C)C)CN1CC2 | 0.34 | 0.33 | –
O=C1Nc2ccccc2C2(CCN(CC(Cc3ccccc3)Nc3nc4ccc(F)cc4s3)CC2)N1 (stereo not drawn) | 0.27 | 2.21 | –
CN(Cc1ccccc1)c1ccc2cc(C(=O)O)c(=O)oc2c1 | 0.71 | 0.34 | –
CC(C)[C@H](NC(=O)OCc1ccccc1)C(=O)NC(CC(=O)O)C(=O)CF (stereo partly drawn) | -1.71 | 0.74 | –
O=C(NO)c1ccc(CN2CCCc3cc(Cl)ccc32)cc1 | -1.37 | 0.45 | –
Cc1cc(-c2ccccc2)cc(C(=O)NNS(=O)(=O)c2ccccc2)c1F | -1.3 | 0 | –
O=C(NCC1CCOCC1)c1n[nH]cc1NC(=O)c1c(F)cccc1F | -1.34 | 0.69 | –
O=C(NCc1ccc(Cl)cc1)C1CCN(S(=O)(=O)c2cc(Cl)cc(Cl)c2)CC1 | 1.09 | -0.34 | –
CCNC(=O)c1noc(-c2cc(C(C)C)c(O)cc2O)c1-c1ccc(CN2CCOCC2)cc1 | -1.1 | 0.62 | –
CCc1c(C#N)c(S[C@@H](C(N)=O)c2ccccc2)nc(N(C)C)c1C#N | 2.36 | -0.11 | –
COc1ccccc1C(=O)Nc1cc2c(cc1N1CCCCC1)n(C)c(=O)n2C | – | 0.52 | –
Cc1[nH]c2c(N3CCO[C@H](CO)C3)c(C#N)c(C(F)(F)F)nc2c1Cl | 1.11 | 0.41 | –
Nc1nc2cc(CC[C@H]3C[C@@H](n4ccc5c(N)ncnc54)[C@H](O)[C@@H]3O)ccc2cc1Br | -0.14 | -5.18 | –
N#Cc1ccc(Nc2cnccc2SCc2ccccc2C(=O)O)c2ccccc12 | 1.8 | 0.49 | –
COc1cc(Nc2ncc(F)c(Nc3ccc4c(n3)NC(=O)C(C)(C)O4)n2)cc(OC)c1OC | -0.89 | – | –
COc1ccccc1C(=O)Nc1cc2c(cc1N1CCNC[C@H]1C)n(C)c(=O)n2C | – | 0.68 | –
CN1CCN(c2ccc3nc(-c4c(N)c5c(F)cccc5[nH]c4=O)[nH]c3c2)CC1 | -0.73 | – | –
